Source: PubChem BioAssay AID1963830 (Molecular Pharmacology Branch, DTP, NCI, 2024)

Tested on: 922993-354-T-J3-PDC complex spheroid viability
Assay: Anticancer human tumor 922993-354-T-J3-PDC patient-derived endometrial carcinoma cell line growth inhibition [POLQ]
Conditions: for IC50: curve of first compound; for viability, T/C: stronger effect = lower value
Experimental: Multicellular complex tumor spheroid response to Polymerase (POL) inhibitors (novobiocin, ART-558, RP6685) in combination with a variety of drugs and investigational agents in selected tumor cell lines
The POL inhibitors (novobiocin, ART-558, and RP6685) were evaluated both individually and in combination with standard of care and investigational anticancer small molecules within a complex spheroid model of solid tumors. . Complex spheroids include a stromal component modeled by human endothelial cells (HUVEC) and fibroblasts modeled by human mesenchymal stem cells (MSCs). The concentration ranges selected for each drug and investigational agent were based upon clinically achievable concentrations if the clinical Cmax of the agent was known.
Compounds. The drugs and investigational agents: novobiocin (NSC847541), ART-558 (NSC835418), RP-6685 (NSC848927), peposertib (NSC802822), ceralasertib (NSC780249), elimusertib (NSC800525), camonsertib (NSC841442), AZD-1390 (NSC803789), olaparib (NSC753686), talazoparib (NSC767125), rucaparib (NSC756644), sotorasib (NSC818433), MRTX-1133 (NSC836407), SN-38 (NSC673596), topotecan (NSC609699), epotoside (NSC141540), doxorubicin (NSC123127), gemcitabine (NSC613327), 5-fluorouracil (NSC19893), paclitaxel (NSC125973), vemurafenib (NSC761431), MSA-2 (NSC828583), SN-011 (NSC837082), adavosertib (NSC754352), prexasertib (NSC758257), carboplatin (NSC241240) and oxaliplatin (NSC266046), were obtained from the National Cancer Institute (NCI) Developmental Therapeutics Program Chemical Repository (21). The FDA-approved anticancer drug set is available from the Developmental Therapeutics Program at https://dtp.cancer.gov/organization/dscb/obtaining/. […] The stock solutions were prepared in dimethyl sulfoxide (DMSO, Sigma-Aldrich, St. Louis, MO, cat. D2650), except for the platinum compounds which were prepared in saline (Quality Biological, Gaithersburg, MD, cat. 114-055-101), at 800-fold the tested concentration and stored at -70 degrees C prior to their use. All drugs and investigational agents were tested over a range starting from a high concentration at or near the clinical Cmax and decreasing in half-log increments. If the clinical Cmax for an agent had not been determined, the highest concentration tested was 10 microM, except for SN-38, which was tested at a high concentration of 1 microM.
Cell Culture. All cells were maintained in an incubator at 37 degrees C and 5% CO2 with 95% humidity. The PDC lines were cultured according to standard operating procedures established by the NCI PDMR (https://pdmr.cancer.gov). Table 3 of the manuscript, lists the cell lines along with the number of the three cell types plated to form the mct-spheroids and media for tumor cell growth. After thawing, all PDC lines, except 997537-175-T-J1-PDC and 415267-285-R-J2-PDC, were cultured in Matrigel-coated flasks prepared with a working solution of 1X Ham's F-12 nutrient mix, without supplementation (Thermo Fisher Scientific, cat. 11765054), 100 U/mL penicillin-streptomycin (Thermo Fisher Scientific, cat. 15140122), and 2.5% Matrigel (Corning Inc., Corning, NY, cat. 354248) for the first three passages. The two PDC lines 997537-175-T-J1-PDC and 415267-285-R-J2-PDC were cultured on uncoated flasks. The 857933-349-R-J2-PDC line was cultured in 6C/Colon 1B media containing advanced DMEM/F-12 (Thermo Fisher Scientific, cat. 12634028), 10 mM HEPES (Thermo Fisher Scientific, cat. 15630080), 1X GlutaMAX supplement (Thermo Fisher Scientific, cat. 35050061), 0.1 mg/mL primocin (InvivoGen, San Diego, CA, cat. ant-pm-2), 10% defined fetal bovine serum, heat inactivated (HyClone Laboratories Inc., Logan, UT, cat. SH30070.03HI), 50% L-WRN conditioned media (ATCC, cat. CRL-3276), 1.25 mM N-Acetyl-L-cysteine (Sigma-Aldrich, cat. A9165), 10 mM nicotinamide (Sigma-Aldrich, cat. N0636), 1X B-27 supplement (Thermo Fisher Scientific, cat. 17504044), 1X N-2 supplement (Thermo Fisher Scientific, cat. […]

[1] = second compound 0.0316 µM, first compound 0.0316 µM
[2] = second compound 0.0316 µM, first compound 0.1 µM
[3] = second compound 0.0316 µM, first compound 0.316 µM
[4] = second compound 0.0316 µM, first compound 1 µM
[5] = second compound 0.0316 µM, first compound 3.16 µM
[6] = second compound 0.0316 µM, first compound 10 µM
[7] = second compound 0.1 µM, first compound 0.0316 µM
[8] = second compound 0.1 µM, first compound 0.1 µM
[9] = second compound 0.1 µM, first compound 0.316 µM
[10] = second compound 0.1 µM, first compound 1 µM
[11] = second compound 0.1 µM, first compound 3.16 µM
[12] = second compound 0.1 µM, first compound 10 µM
[13] = second compound 0.316 µM, first compound 0.0316 µM
[14] = second compound 0.316 µM, first compound 0.1 µM
[15] = second compound 0.316 µM, first compound 0.316 µM
[16] = second compound 0.316 µM, first compound 1 µM
[17] = second compound 0.316 µM, first compound 3.16 µM
[18] = second compound 0.316 µM, first compound 10 µM
[19] = second compound 1 µM, first compound 0.0316 µM
[20] = second compound 1 µM, first compound 0.1 µM
[21] = second compound 1 µM, first compound 0.316 µM
[22] = second compound 1 µM, first compound 1 µM
[23] = second compound 1 µM, first compound 3.16 µM
[24] = second compound 1 µM, first compound 10 µM
[25] = second compound 3.16 µM, first compound 0.0316 µM
[26] = second compound 3.16 µM, first compound 0.1 µM
[27] = second compound 3.16 µM, first compound 0.316 µM
[28] = second compound 3.16 µM, first compound 1 µM
[29] = second compound 3.16 µM, first compound 3.16 µM
[30] = second compound 3.16 µM, first compound 10 µM
[31] = second compound 10 µM, first compound 0.0316 µM
[32] = second compound 10 µM, first compound 0.1 µM
[33] = second compound 10 µM, first compound 0.316 µM
[34] = second compound 10 µM, first compound 1 µM
[35] = second compound 10 µM, first compound 3.16 µM
[36] = second compound 10 µM, first compound 10 µM
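Further: spheroids exposed to the agents for one week.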
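Wherever viability, T/C is given: 100% = DMSO vehicle control wells.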

## C#Cc1c(F)ccc2cc(O)cc(-c3ncc4c(N5CC6CCC(C5)N6)nc(OCC56CCCN5CC(F)C6)nc4c3F)c12 (stereo unspecified) + COC1C(OC(N)=O)C(O)C(Oc2ccc3c(O)c(NC(=O)c4ccc(O)c(CC=C(C)C)c4)c(=O)oc3c2C)OC1(C)C
Second compound 0.0316 µM
  IC50: > 10 µM
Second compound 0.1 µM
  IC50: > 10 µM
Second compound 0.316 µM
  IC50: > 10 µM
Second compound 1 µM
  IC50: > 10 µM
Second compound 3.16 µM
  IC50: > 10 µM
Second compound 10 µM
  IC50: > 10 µM
[1]
  viability, T/C: 100%
[2]
  viability, T/C: 97.4%
[3]
  viability, T/C: 90.5%
[4]
  viability, T/C: 101%
[5]
  viability, T/C: 98%
[6]
  viability, T/C: 79.5%
[7]
  viability, T/C: 105%
[8]
  viability, T/C: 101%
[9]
  viability, T/C: 98.8%
[10]
  viability, T/C: 90.3%
[11]
  viability, T/C: 94.9%
[12]
  viability, T/C: 90.4%
[13]
  viability, T/C: 105%
[14]
  viability, T/C: 98.4%
[15]
  viability, T/C: 104%
[16]
  viability, T/C: 87.2%
[17]
  viability, T/C: 92.8%
[18]
  viability, T/C: 90%
[19]
  viability, T/C: 96.9%
[20]
  viability, T/C: 98.8%
[21]
  viability, T/C: 94.9%
[22]
  viability, T/C: 94.2%
[23]
  viability, T/C: 93%
[24]
  viability, T/C: 86.9%
[25]
  viability, T/C: 96.9%
[26]
  viability, T/C: 90.3%
[27]
  viability, T/C: 98.3%
[28]
  viability, T/C: 81.7%
[29]
  viability, T/C: 99.5%
[30]
  viability, T/C: 74.9%
[31]
  viability, T/C: 81.8%
[32]
  viability, T/C: 86.2%
[33]
  viability, T/C: 90.4%
[34]
  viability, T/C: 89.5%
[35]
  viability, T/C: 96.2%
[36]
  viability, T/C: 72.1%

## C#Cc1c(F)ccc2cc(O)cc(-c3ncc4c(N5CC6CCC(C5)N6)nc(OCC56CCCN5CC(F)C6)nc4c3F)c12 (stereo unspecified) + Cc1cccc(N(C)C(=O)C2C(O)CCN2c2nc(C)cc(C(F)(F)F)c2C#N)c1
Second compound 0.0316 µM
  IC50: > 10 µM
Second compound 0.1 µM
  IC50: > 10 µM
Second compound 0.316 µM
  IC50: > 10 µM
Second compound 1 µM
  IC50: > 10 µM
Second compound 3.16 µM
  IC50: > 10 µM
Second compound 10 µM
  IC50: > 10 µM
[1]
  viability, T/C: 107%
[2]
  viability, T/C: 102%
[3]
  viability, T/C: 104%
[4]
  viability, T/C: 106%
[5]
  viability, T/C: 95.8%
[6]
  viability, T/C: 91.3%
[7]
  viability, T/C: 107%
[8]
  viability, T/C: 95%
[9]
  viability, T/C: 94%
[10]
  viability, T/C: 93.7%
[11]
  viability, T/C: 87.9%
[12]
  viability, T/C: 98.7%
[13]
  viability, T/C: 109%
[14]
  viability, T/C: 108%
[15]
  viability, T/C: 98.5%
[16]
  viability, T/C: 101%
[17]
  viability, T/C: 95%
[18]
  viability, T/C: 91.7%
[19]
  viability, T/C: 102%
[20]
  viability, T/C: 107%
[21]
  viability, T/C: 98.7%
[22]
  viability, T/C: 94.5%
[23]
  viability, T/C: 97.8%
[24]
  viability, T/C: 89.2%
[25]
  viability, T/C: 106%
[26]
  viability, T/C: 101%
[27]
  viability, T/C: 104%
[28]
  viability, T/C: 104%
[29]
  viability, T/C: 99.5%
[30]
  viability, T/C: 86.2%
[31]
  viability, T/C: 103%
[32]
  viability, T/C: 97.2%
[33]
  viability, T/C: 98.1%
[34]
  viability, T/C: 94.8%
[35]
  viability, T/C: 100%
[36]
  viability, T/C: 78.4%

## O=C(Nc1ccc(O)c(NS(=O)(=O)c2ccc(F)cc2)c1)c1ccc(-c2ccccc2)cc1 + Cc1cccc(N(C)C(=O)C2C(O)CCN2c2nc(C)cc(C(F)(F)F)c2C#N)c1
Second compound 0.0316 µM
  IC50: > 10 µM
Second compound 0.1 µM
  IC50: > 10 µM
Second compound 0.316 µM
  IC50: > 10 µM
Second compound 1 µM
  IC50: > 10 µM
Second compound 3.16 µM
  IC50: > 10 µM
Second compound 10 µM
  IC50: > 10 µM
[1]
  viability, T/C: 106%
[2]
  viability, T/C: 104%
[3]
  viability, T/C: 99.2%
[4]
  viability, T/C: 101%
[5]
  viability, T/C: 104%
[6]
  viability, T/C: 105%
[7]
  viability, T/C: 104%
[8]
  viability, T/C: 101%
[9]
  viability, T/C: 106%
[10]
  viability, T/C: 100%
[11]
  viability, T/C: 104%
[12]
  viability, T/C: 104%
[13]
  viability, T/C: 98.8%
[14]
  viability, T/C: 104%
[15]
  viability, T/C: 97.2%
[16]
  viability, T/C: 98.6%
[17]
  viability, T/C: 104%
[18]
  viability, T/C: 103%
[19]
  viability, T/C: 99.6%
[20]
  viability, T/C: 102%
[21]
  viability, T/C: 101%
[22]
  viability, T/C: 102%
[23]
  viability, T/C: 103%
[24]
  viability, T/C: 104%
[25]
  viability, T/C: 101%
[26]
  viability, T/C: 101%
[27]
  viability, T/C: 97.5%
[28]
  viability, T/C: 99.6%
[29]
  viability, T/C: 94.8%
[30]
  viability, T/C: 102%
[31]
  viability, T/C: 98.1%
[32]
  viability, T/C: 99.9%
[33]
  viability, T/C: 102%
[34]
  viability, T/C: 93.7%
[35]
  viability, T/C: 94%
[36]
  viability, T/C: 97%
